Reference: patent US9540389B2, “Antimicrobial potentiators” (priority 2013, dated 2017)

Assays:
AcrAB-TolC efflux pump [1] = molecular target: T1, AcrAB-TolC efflux pump (Escherichia coli, UniProt P31224); test: H33342 accumulation assay; assay type: cell-based, Escherichia coli 287; design: endogenous in cells; host or cells: E. coli strains 285 and 287 (ciprofloxacin-resistant mutants of AB1157); conditions: hyper-efflux strain 287
Target sequence in this assay (P02930 23-493): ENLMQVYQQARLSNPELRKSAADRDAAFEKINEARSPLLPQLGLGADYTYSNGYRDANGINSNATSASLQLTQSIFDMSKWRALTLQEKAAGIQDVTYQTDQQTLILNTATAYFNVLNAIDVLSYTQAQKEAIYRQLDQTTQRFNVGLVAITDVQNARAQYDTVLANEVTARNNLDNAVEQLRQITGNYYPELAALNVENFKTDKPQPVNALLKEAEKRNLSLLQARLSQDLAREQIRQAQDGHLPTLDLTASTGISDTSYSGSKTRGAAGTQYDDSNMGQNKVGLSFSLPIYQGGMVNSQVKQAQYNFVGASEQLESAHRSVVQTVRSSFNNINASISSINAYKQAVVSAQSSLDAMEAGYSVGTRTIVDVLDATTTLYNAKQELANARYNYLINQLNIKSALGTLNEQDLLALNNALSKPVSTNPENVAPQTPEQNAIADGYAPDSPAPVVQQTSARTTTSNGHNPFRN
Target sequence in this assay (P0AE06 25-397, further chain): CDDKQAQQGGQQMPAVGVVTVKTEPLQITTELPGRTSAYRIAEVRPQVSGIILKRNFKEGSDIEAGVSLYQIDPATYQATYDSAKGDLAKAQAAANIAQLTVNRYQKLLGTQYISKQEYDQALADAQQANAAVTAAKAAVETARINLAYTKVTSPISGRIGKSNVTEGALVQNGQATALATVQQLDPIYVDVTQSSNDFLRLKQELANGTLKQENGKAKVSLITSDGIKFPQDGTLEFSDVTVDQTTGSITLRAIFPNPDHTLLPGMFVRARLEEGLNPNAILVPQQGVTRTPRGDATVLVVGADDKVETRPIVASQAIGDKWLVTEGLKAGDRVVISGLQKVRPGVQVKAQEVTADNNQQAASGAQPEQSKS
Target sequence in this assay (P31224 whole entry): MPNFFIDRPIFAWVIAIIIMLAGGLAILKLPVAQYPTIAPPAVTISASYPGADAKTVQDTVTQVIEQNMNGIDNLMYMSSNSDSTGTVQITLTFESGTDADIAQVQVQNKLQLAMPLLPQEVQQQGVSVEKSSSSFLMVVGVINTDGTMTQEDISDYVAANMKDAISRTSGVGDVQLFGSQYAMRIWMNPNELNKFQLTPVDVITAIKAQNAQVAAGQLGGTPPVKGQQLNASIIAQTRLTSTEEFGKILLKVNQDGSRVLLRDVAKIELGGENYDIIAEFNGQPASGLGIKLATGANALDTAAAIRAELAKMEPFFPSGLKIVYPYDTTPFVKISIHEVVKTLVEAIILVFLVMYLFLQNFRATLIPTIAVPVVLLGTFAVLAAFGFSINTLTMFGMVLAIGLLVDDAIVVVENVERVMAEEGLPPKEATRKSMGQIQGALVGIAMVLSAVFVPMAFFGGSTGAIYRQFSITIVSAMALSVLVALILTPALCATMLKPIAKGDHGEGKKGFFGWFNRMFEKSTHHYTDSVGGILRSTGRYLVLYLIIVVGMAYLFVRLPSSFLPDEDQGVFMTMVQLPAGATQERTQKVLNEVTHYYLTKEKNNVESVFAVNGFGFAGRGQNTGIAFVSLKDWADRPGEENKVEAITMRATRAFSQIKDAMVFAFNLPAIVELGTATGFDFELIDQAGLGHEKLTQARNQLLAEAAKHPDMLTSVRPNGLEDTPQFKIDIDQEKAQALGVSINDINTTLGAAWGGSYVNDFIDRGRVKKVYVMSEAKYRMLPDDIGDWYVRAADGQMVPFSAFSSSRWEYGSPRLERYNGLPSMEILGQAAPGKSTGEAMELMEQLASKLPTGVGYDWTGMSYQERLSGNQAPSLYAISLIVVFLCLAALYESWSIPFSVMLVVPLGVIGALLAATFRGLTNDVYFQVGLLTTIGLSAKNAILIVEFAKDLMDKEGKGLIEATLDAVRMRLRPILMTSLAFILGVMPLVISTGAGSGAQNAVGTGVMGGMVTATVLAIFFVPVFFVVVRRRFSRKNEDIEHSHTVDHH

AcrAB-TolC efflux pump [2] = molecular target: T1, AcrAB-TolC efflux pump; test: H33342 accumulation assay; assay type: cell-based, Escherichia coli 285; design: endogenous in cells; host or cells: E. coli strains 285 and 287 (ciprofloxacin-resistant mutants of AB1157); conditions: hyper-efflux strain 285
Target sequence in this assay (P31224 whole entry): as above
Target sequence in this assay (P0AE06 25-397, further chain): as the sequence (P0AE06 25-397, further chain) above
Target sequence in this assay (P02930 23-493, further chain): as the sequence (P02930 23-493) above

[3] = tested on: Enterobacter aerogenes ATCC 13048; test: MIC assay (microbroth dilution) ± 25 μM EPI; assay type: cell-based
How it was run: (§1)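 CLSI M7-A7 broth microdilution, modified: LB medium, DMSO 2% final. Triplicate runs, geometric mean reported. Checkerboard drug/EPI grids set up identically. Deletion strains: Keio mutations P1-transduced into AB1157.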

[4] = tested on: Shigella flexneri ATCC 12022; test: MIC assay (microbroth dilution) ± 25 μM EPI; assay type: cell-based
How it was run: (§2)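 Knockout alleles from Keio strains were moved into AB1157 by P1 transduction. MICs were determined by CLSI M7-A7 microbroth dilution, with LB replacing MHB and 2% final DMSO. Checkerboard combinations used the same modifications, and values are geometric means of triplicates.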

Escherichia coli 331 = test: MIC assay (microbroth dilution) ± 25 μM EPI; assay type: cell-based; conditions: E. coli 331
How it was run: as §2

[5] = tested on: Salmonella enterica ATCC 14028; test: MIC assay (microbroth dilution) ± 25 μM EPI; assay type: cell-based
How it was run: as §1

[6] = tested on: Klebsiella pneumoniae ATCC 700603; test: MIC assay (microbroth dilution) ± 25 μM EPI; assay type: cell-based
How it was run: as §1

Escherichia coli AB1157 = test: MIC assay (microbroth dilution) ± 25 μM EPI; assay type: cell-based; conditions: Escherichia coli, AB1157, read-out: MICs (μg/ml) ± EPIs: None
How it was run: as §1

[7] = tested on: Escherichia coli ATCC 25922; test: MIC assay (microbroth dilution) ± 25 μM EPI; assay type: cell-based
How it was run: as §2

[8] = tested on: Escherichia coli AB1157 ΔacrB; test: MIC assay (microbroth dilution); assay type: cell-based
Text: • Strains and Reagents. The following strains were obtained from the Keio collection (Baba, et al.: Construction of Escherichia coli K-12 in-frame, single-gene knockout mutants: the Keio collection. In Mol Syst Biol, vol. 2, pp. 2006 0008, (2006)): JW0451 (ΔacrB::kan), JW5503 (ΔtolC::kan), JW3234 (ΔacrF::kan), JW2661 (ΔemrB::kan), JW0863 (ΔmacB::kan). The deletion mutations in each of these strains were transferred to AB1157 using P1 phage transduction (see Table 1). The construction of the E. coli cell-based reporter strain (SOS-XXX) that was used for high throughput screening is described in detail in the supplementary information. […] Irgasan was a generous gift from Ciba Speciality Chemicals, Inc. (High Point, N.C.). Hoechst 33342 (H33342) was purchased from Molecular Probes (Eugene, Oreg.). […] Luria Broth (Miller) and agar were purchased as prepared dehydrated media from Becton Dickenson (Franklin Lakes, N.J.). The compound libraries used in high-throughput screens were purchased from Chembridge (San Diego, Calif.), ChemDiv (San Diego, Calif.), and TimTec (Newark, Del.). MBX2319 was synthesized by Microbiotix, Inc. • Antibacterial Activity Assays. The minimal inhibitory concentration (MIC) of antibacterial agents and biocides were determined using the microbroth dilution method essentially as described in the CLSI protocol M7-A7 (CLSI: Method for dilution antimicrobial susceptibility testing for bacteria that grow aerobically; Approved standard-document M7-A7. In Clinical and Laboratory Standards Institute document M7-A7, Clinical and Laboratory Standards Institute, Wayne, Pa., (2006)), with the following exceptions. LB media was used instead of MHB. […] The final concentration of DMSO in each assay was 2%. […] MIC assays were performed in triplicate and the geometric mean was calculated. Checkerboard MIC assays using an EPI and an antibacterial agent were performed essentially as described (Pillai, et al.: Antimicrobial Combinations. In Antibiotics in Laboratory Medicine, ed. by V. Lorian, pp. 365-440, Lippincott Williams & Wilkins, Philadelphia, Pa., (2005)), with the same modifications used for the MIC assays described above. • Time-Kill Assays. Killing curve assays were performed essentially as described (Pillai, et al.: Antimicrobial Combinations. In Antibiotics in Laboratory Medicine, ed. by V. Lorian, pp. 365-440, Lippincott Williams & Wilkins, Philadelphia, Pa., (2005)). Exponential bacterial cultures grown in LB were diluted to a cell density of ˜1×10^7 in LB followed by addition of CIP and/or an EPI. Viability was monitored over 2-4 hours by making serial dilutions in saline and spotting 5 μl of each dilution onto the surface of an LB agar plate in triplicate. Colonies were counted after the plates were incubated at 37° C. for 16-18 hr, colony forming units (CFU) per ml were calculated, and the average and standard deviation for the three replicates was determined. For treatments that decreased CFU/ml below the limit of detection for the spot plating method, the 100 μl samples were diluted into 5 ml LB top agar, were poured onto LB agar plates, and incubated for 18 hr at 37° C. To calculate the fraction of the control for each sample, the average CFU/ml values for treated samples were divided by those from the same sample at 0 h (time=0). Each experiment was repeated at least three times, and a representative experiment is shown. • H33342 Accumulation Assay. The rate of accumulation of the fluorescent dye Hoechst 33342 (H33342), which is a substrate of a wide variety of bacterial efflux pumps (van den Berg van Saparoea, et al., Biochemistry, vol. 44, pp. 16931-16938, (2005)), can be used to estimate the activity of the major efflux pumps in E. coli and many other bacterial species. The H33342 accumulation assay was used to evaluate the effect of EPIs on the activity of the AcrAB-TolC efflux pump in several bacterial species essentially as described (Coldham, et al., J Antimicrob Chemother, vol. 65, pp. 1655-1663, (2010)). […]

[9] = MIC no cmpd/MIC + 25 μM MBX2319

CC1(C)Cc2c(C#N)c(SCCc3ccccc3)nc(N3CCOCC3)c2CO1 [MBX2319]
H33342 accumulation (AcrAB-TolC efflux pump [1]): increased H33342 accumulation
H33342 accumulation (AcrAB-TolC efflux pump [2]): increased H33342 accumulation

CCN1CCN(C(=O)N[C@@H](C(=O)N[C@@H]2C(=O)N3[C@@H]2SC(C)(C)[C@@H]3C(=O)O)c2ccccc2)C(=O)C1=O [Piperacillin, piperacillin]
MIC (μg/ml) ± EPI: MBX2319 ([3]; + 25 μM MBX2319): 1.4 µg/mL
MIC (μg/ml) ± EPI: PAβN ([3]; + 25 μM PAβN): 16 µg/mL
MIC ([3]; Klebsiella aerogenes, ATCC13048, no EPI, read-out: MIC (μg/ml) ± EPI: None): 4 µg/mL
MIC Ratio MBX2319 [3, 9]: 2.8
MIC Ratio PAβN ([3]; MIC no cmpd/MIC + 25 μM PAβN): 0.2
MIC (μg/ml) ± EPI: MBX2319 ([4]; Shigella flexneri ATCC 12022, + 25 μM MBX2319): 0.25 µg/mL
MIC (μg/ml) ± EPI: PAβN ([4]; Shigella flexneri ATCC 12022, + 25 μM PAβN): 1 µg/mL
MIC Ratio MBX2319 ([4]; Shigella flexneri ATCC 12022, MIC no cmpd/MIC + 25 μM MBX2319): 4
MIC Ratio PAβN ([4]; Shigella flexneri ATCC 12022, MIC no cmpd/MIC + 25 μM PAβN): 1
MIC ([4]; Shigella flexneri, ATCC12022, read-out: MIC (μg/ml) ± EPI: None): 1 µg/mL
MIC (μg/ml) ± EPI: MBX2319 (Escherichia coli 331; + 25 μM MBX2319): 0.707 µg/mL
MIC (μg/ml) ± EPI: PAβN (Escherichia coli 331; + 25 μM PAβN): 4 µg/mL
MIC Ratio MBX2319 (Escherichia coli 331; [9]): 5.6
MIC Ratio PAβN (Escherichia coli 331; MIC no cmpd/MIC + 25 μM PAβN): 1
MIC (Escherichia coli 331; Escherichia coli, no EPI, read-out: MIC (μg/ml) ± EPI: None): 4 µg/mL
MIC (μg/ml) ± EPI: MBX2319 ([5]; + 25 μM MBX2319): 0.5 µg/mL
MIC (μg/ml) ± EPI: PAβN ([5]; + 25 μM PAβN): 4 µg/mL
MIC ([5]; ATCC14028, no EPI, read-out: MIC (μg/ml) ± EPI: None): 2.4 µg/mL
MIC Ratio MBX2319 [5, 9]: 4.8
MIC Ratio PAβN ([5]; MIC no cmpd/MIC + 25 μM PAβN): 0.6
MIC (μg/ml) ± EPI: MBX2319 ([6]; + 25 μM MBX2319): 113 µg/mL
MIC (μg/ml) ± EPI: PAβN ([6]; + 25 μM PAβN): 113 µg/mL
MIC ([6]; ATCC700603, no EPI, read-out: MIC (μg/ml) ± EPI: None): 113 µg/mL
MIC Ratio MBX2319 [6, 9]: 1
MIC Ratio PAβN ([6]; MIC no cmpd/MIC + 25 μM PAβN): 1
MIC (Escherichia coli AB1157): 4 µg/mL
MIC (μg/ml) ± EPI: MBX2319 ([7]; E. coli ATCC 25922, + 25 μM MBX2319): 1.68 µg/mL
MIC (μg/ml) ± EPI: PAβN ([7]; E. coli ATCC 25922, + 25 μM PAβN): 4 µg/mL
MIC Ratio MBX2319 ([7]; E. coli ATCC 25922, MIC no cmpd/MIC + 25 μM MBX2319): 1.7
MIC Ratio PAβN ([7]; E. coli ATCC 25922, MIC no cmpd/MIC + 25 μM PAβN): 0.7
MIC ([7]; Escherichia coli, ATCC25922, read-out: MIC (μg/ml) ± EPI: None): 2.83 µg/mL
MIC ([8]; Escherichia coli, read-out: MICs (μg/ml) ΔacrB None): 0.25 µg/mL
MIC Ratio ΔacrB ([8]; MIC WT/MIC ΔacrB): 16
